Experimental data from US20060094660A1, “Inhibitor of the shh signalling patway and a testosterone supressing agent for the treatment of cancer” (priority 2002, published 2006).
“And” between values parts separate entries of the source, which are not always exact repeats. Equal entries are not always repeated. Where two headings read alike, the source gives them in different places.

What was measured:
ventral prostate (VP) [1] = test: Organ culture of P0 rat VPs: peripheral epithelial bud tips per unit perimeter; type: cell-based; conditions: for mean bud tips per unit perimeter: six days; for mean bud tips per 1000 pixels perimeter: 3 days
From the text: We chose to analyse the effect of Cy on the prostatic epithelia of VPs grown in vitro. Epithelial bud tips situated at the periphery of VPs (total of 60 VPs from each of four treatment groups and 16 independent experiments) were counted and expressed as a ratio to organ perimeter, to account for the changes in organ size after treatments (FIG. 5C). The addition of Cy to organs cultured −T caused a significant increase in the number of peripheral tips per unit perimeter (−T=60.16±/−0.97 mean bud tips per unit perimeter versus −T +Cy=74.47+/−1.07; Student's t-test, P=1.31 e^−17). […] It is possible that the number of tips induced by T or Cy were the maximum for the in vitro system, thus additive effects may not be apparent due to the limitations of the system. […] An increase in peripheral tip number was also observed in VPs cultured with anti-SHH antibody (5E1) in the absence of T (−T=62.13+/−0.82 versus −T+5E1=93.03+/−1.08), with a similar peripheral tip number being observed between VPs cultured +T and +T+5E1 (+T=74.32+/−0.69 versus +T+5E1=79.21+/−1.28).
The number of peripheral bud tips from the cultured VPs was counted and expressed as a ratio to perimeter (FIG. 10C).

ventral prostate (VP) [2] = test: Organ culture of P0 rat VPs: histology (Masson's trichrome) and p63/CK14 immunohistochemistry; type: cell-based; conditions: six days
Procedure: (§1) Anti-CK14 antibody was diluted at 1:100, and anti-p63 antibody (Santa Cruz Biotechnologies Inc., USA) was diluted at 1:500. […] Mitotic indices were calculated by counting the number of pan-cytokeratin-positive epithelial cells that were also BrdU-positive.
Prostatic ducts grow initially as solid cords, which then canalise, resulting in ducts that contain lumens. […] Normal prostatic ducts in rats consist of luminal secretory cells with underlying basal cells, forming a single lumen.

ventral prostate (VP) [3] = test: Organ culture of P0 rat VPs: BrdU incorporation, mitotic/proliferative index; type: cell-based; conditions: for % proliferative nuclei, mesenchyme: day 2; for % proliferative nuclei, epithelium: day 3
Procedure: as §1
[…] […] The percentage of proliferating cells was scored from three images of the peripheral tips of the organs (distal), and three images of the ducts closest to the urethra (proximal), totalling 27 distal and proximal counts for each treatment group.
The proliferative index of the epithelial and mesenchymal cell compartments was calculated for VPs cultured −/+T and −/+SHH after the addition of BrdU (FIG. 10D).

UGS explants = conditions: for prostatic buds: 7 days
Procedure: As the prostate was not well developed in either mutant (FIG. 9B) or wildtype males at this stage, UGS explants from both Shh null mice and their littermates were grown in vitro to determine if prostatic budding could be induced (n=3).

ventral prostate (VP) [4] = tested on: ventral prostate (VP)
Procedure: Serum-free organ culture of P0 Wistar rat VPs was performed as previously described (Sugimura et al., 1996). […] The two-dimensional area and perimeter of organs was measured from live captured images using NIH Image software.
P0 VPs were grown in vitro for five days in the presence (+) or absence (−) of T and with (+) or without (−) 100 μg ml^−1 anti-SHH antibody (5E1) (FIG. 4A), after which their two-dimensional area was measured (FIG. 4B).
Effect of exogenous SHH on VP growth and branching. The effects of adding recombinant SHH to VPs grown in vitro was examined (FIG. 10). VPs were grown for 3 days −/+T and −/+recombinant SHH protein (n=6).

Ptc transcripts [5] = test: RNase protection assay, VPs grown in vitro; type: cell-based, rat; conditions: six days −/+T; or five days T then one day cyproterone acetate
From the text: (§2) DNA templates for Shh and Ptc riboprobes were synthesised by RT-PCR from P0 UGT cDNA and subcloned into pBluescript KSII+ (Stratagene, USA). PCR primers were designed using GenBank-published cDNA sequences (Shh: GenBank Accession No. NM_017221; Primers: L—[…] (SEQ ID No 1), R—[…] (SEQ ID No 2); Ptc: GenBank Accession No. AF079162; Primers L—[…] (SEQ ID No 3), R—[…] (SEQ ID No 4)). DNA templates for Cyclophilin (Cphn) and 28S riboprobes were from Ambion, Inc., USA. ^32P-labelled anti-sense riboprobes were transcribed, and RNase protection assays performed as previously described in detail (Thomson et al., 1997). RNase protected products from Shh, Ptc, Cphn and 28S riboprobes were 269 nucleotides (nt), 322 nt, 103 nt and 155 nt respectively. Gels were imaged using a Storm phosphorimager (Molecular Dynamics, USA) and transcript abundance was determined from the intensities of bands, calculated using ImageQuant V.1.2 (Molecular Dynamics, USA).
(§3) RPAs were performed to analyse Shh and Ptc transcripts levels in VPs and URs grown in vitro. VPs were cultured for six days in the presence or absence of T; or for five days with T followed by a one-day treatment with the AR antagonist cyproterone acetate (FIG. 3B). […] Similarly, in short-term cultures of VPs (seven hours or three days), no changes in transcript levels were observed (data not shown).

Shh transcripts [6] = test: RNase protection assay, VPs grown in vitro; type: cell-based, rat; conditions: six days −/+T; or five days T then one day cyproterone acetate
From the text: as §2, §3

Ptc transcripts [7] = test: RNase protection assay, female URs cultured three days; type: cell-based, rat; conditions: three days −/+T (10^−8 M)
From the text: as §2, §3

Shh transcripts [8] = test: as above; type: cell-based, rat; conditions: three days −/+T (10^−8 M)
From the text: as §2, §3

Shh transcripts [9] = conditions: explants cultured for three days; cited from earlier work
[10] = target: SONIC HEDGEHOG (SHH) protein, endogenous in cultured P0 Wistar rat ventral prostate (rat) (UniProt Q63673); test: cell-based or functional assay
SONIC HEDGEHOG (SHH) protein, endogenous in cultured P0 Wistar rat ventral prostate (rat), sequence (Q63673 25-198 limits assumed): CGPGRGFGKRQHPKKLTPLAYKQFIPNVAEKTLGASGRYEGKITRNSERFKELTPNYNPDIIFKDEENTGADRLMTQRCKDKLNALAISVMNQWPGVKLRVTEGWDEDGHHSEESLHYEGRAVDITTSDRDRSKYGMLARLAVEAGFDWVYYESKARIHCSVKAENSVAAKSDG

CC1=C2C[C@H]3[C@@H](CC=C4C[C@@H](O)CC[C@@]43C)[C@@H]2CC[C@]12O[C@@H]1C[C@H](C)CN[C@H]1[C@H]2C [Cy, cyclopamine]
mean bud tips per unit perimeter (ventral prostate (VP) [1]; +T +Cy): 69.84+/−1.13 bud tips per unit perimeter
mean bud tips per unit perimeter (ventral prostate (VP) [1]; −T +Cy): 74.47+/−1.07 bud tips per unit perimeter
CK14 expression (ventral prostate (VP) [2]; +T +Cy): very few CK14-positive cells in distal tips
canalisation (lumens) of prostatic ducts (ventral prostate (VP) [2]; +T +Cy): exhibited lumens in distal tips
p63 expression (ventral prostate (VP) [2]; +T +Cy): confined to the basal cell layer of all distal tips
appearance of epithelial tips (ventral prostate (VP) [2]; −T +Cy): did not alter the appearance of epithelial tips
mitotic nuclei in distal epithelial tips (ventral prostate (VP) [3]): 13.48%+/−0.93% and 16.28%+/−0.74%
toxicity to explants (UGS explants; 5 μM Cy): toxic and caused premature organ death
toxicity to explants (UGS explants; 10 μM Cy): toxic and caused premature organ death
prostatic buds (UGS explants; +T +5 μM Cy): present
prostatic buds (UGS explants; +T +10 μM Cy): present
effect on VP cultures (ventral prostate (VP) [4]): little or no effect
optimum concentration for growth inhibition (ventral prostate (VP) [4]): 1 µM
toxicity to VP organ cultures (organs dying prematurely) (ventral prostate (VP) [4]): toxic

C[C@]12CC[C@H]3[C@@H](CCC4=CC(=O)CC[C@@]43C)[C@@H]1CC[C@@H]2O [T, testosterone]
Ptc transcript abundance (Ptc transcripts [5]): No significant difference
Shh transcript abundance (Shh transcripts [6]): No significant difference
peripheral tip number (ventral prostate (VP) [1]; +T alone (5E1 experiments)): 74.32+/−0.69
mean bud tips per unit perimeter (ventral prostate (VP) [1]; +T alone (Cy experiments)): 71.80+/−0.83 bud tips per unit perimeter
mean bud tips per 1000 pixels perimeter (ventral prostate (VP) [1]; +T alone (SHH experiments)): 83.92+/−2.25 bud tips per 1000 pixels perimeter
change in Ptc transcript levels (Ptc transcripts [7]): no significant change
upregulation of Shh transcripts (Shh transcripts [8]): two-and-a-half-fold
mitotic nuclei in distal epithelial tips (ventral prostate (VP) [3]; +T alone (Cy experiments), day six): 23.24%+/−1.86%
% proliferative nuclei, mesenchyme (ventral prostate (VP) [3]; +T alone (SHH experiments)): 17.81%+/−1.22%
% proliferative nuclei, epithelium (ventral prostate (VP) [3]; +T alone (SHH experiments)): 32.54%+/−1.65%
proliferation in proximal ducts (ventral prostate (VP) [3]; response to T): reduced
prostatic buds (UGS explants; +T): present
% area (2D area relative to −T) (ventral prostate (VP) [4]; +T alone (SHH experiments), 3 days): 127.05+/−5.12%

CC(=O)O[C@]1(C(C)=O)CC[C@H]2[C@@H]3C=C(Cl)C4=CC(=O)[C@@H]5C[C@@H]5[C@]4(C)[C@H]3CC[C@@]21C [cyproterone acetate]
Ptc transcript abundance (Ptc transcripts [5]): No significant difference
Shh transcript abundance (Shh transcripts [6]): No significant difference

C[C@]12CCC(=O)C[C@@H]1CC[C@@H]1[C@@H]2CC[C@]2(C)[C@@H](O)CC[C@@H]12 [dihydrotestosterone]
increase in Shh transcripts (Shh transcripts [9]): five-fold

SHH: recombinant SHH protein (Research Diagnostics, USA)
mean bud tips per 1000 pixels perimeter (ventral prostate (VP) [1]; +T +SHH): 68.34+/−2.57 bud tips per 1000 pixels perimeter
mean bud tips per 1000 pixels perimeter (ventral prostate (VP) [1]; −T +SHH): 48.0+/−3.35 bud tips per 1000 pixels perimeter
% proliferative nuclei, mesenchyme (ventral prostate (VP) [3]; +T+SHH): 20.47%+/−1.07%
% proliferative nuclei, epithelium (ventral prostate (VP) [3]; +T+SHH): 30.46%+/−1.72%
reduction of epithelial cell proliferation (ventral prostate (VP) [3]; VPs grown +T, not statistically significant): 6%
reduction of epithelial cell proliferation (ventral prostate (VP) [3]; VPs grown −T): a third
% proliferative nuclei, epithelium (ventral prostate (VP) [3]; −T +SHH): 18.62%+/−2.06%
% proliferative nuclei, mesenchyme (ventral prostate (VP) [3]; −T+SHH): 19.45%+/−1.12%
% area (2D area relative to −T) (ventral prostate (VP) [4]; +T +SHH, 3 days): 123.03+/−6.75%
effect on mesenchyme of cultured VPs (ventral prostate (VP) [4]; recombinant SHH, 3 days, both −/+T): expansion of the mesenchyme around the periphery of VPs

anti-SHH antibody (clone 5E1, Developmental Studies Hybridoma Bank, University of Iowa)
decrease in growth of P0 rat ventral prostate in vitro (two-dimensional area, five days of culture, 100 ug/ml antibody) [10]: 20%
decrease in testosterone-induced growth of rat ventral prostates in vitro [10]: 50%
